Reference: PubChem BioAssay AID1963869 (Molecular Pharmacology Branch, DTP, NCI, 2024)

Test system: KRAS patient-derived spheroids with HUVEC/MSC, viability
Experiment: Anticancer human tumor 323965-272-R-J2-PDC patient-derived pancreatic carcinoma cell line growth inhibition [KRAS2]
Conditions: for IC50: curve of first compound; for viability, T/C: stronger effect = lower value
How it was run: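 KRAS-mutant tumor cells were grown as spheroids with HUVEC endothelial cells and human MSCs as stroma. Targeted agents were tested alone and with KRAS pathway inhibitors. Doses started at or near clinical Cmax, or 10 microM, descending half-log.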

[1] = second compound 0.1 µM, first compound 0.01 µM
[2] = second compound 0.1 µM, first compound 0.0316 µM
[3] = second compound 0.1 µM, first compound 0.1 µM
[4] = second compound 0.1 µM, first compound 0.316 µM
[5] = second compound 0.1 µM, first compound 1 µM
[6] = second compound 0.1 µM, first compound 3.16 µM
[7] = second compound 0.316 µM, first compound 0.01 µM
[8] = second compound 0.316 µM, first compound 0.0316 µM
[9] = second compound 0.316 µM, first compound 0.1 µM
[10] = second compound 0.316 µM, first compound 0.316 µM
[11] = second compound 0.316 µM, first compound 1 µM
[12] = second compound 0.316 µM, first compound 3.16 µM
[13] = second compound 1 µM, first compound 0.01 µM
[14] = second compound 1 µM, first compound 0.0316 µM
[15] = second compound 1 µM, first compound 0.1 µM
[16] = second compound 1 µM, first compound 0.316 µM
[17] = second compound 1 µM, first compound 1 µM
[18] = second compound 1 µM, first compound 3.16 µM
[19] = second compound 3.16 µM, first compound 0.01 µM
[20] = second compound 3.16 µM, first compound 0.0316 µM
[21] = second compound 3.16 µM, first compound 0.1 µM
[22] = second compound 3.16 µM, first compound 0.316 µM
[23] = second compound 3.16 µM, first compound 1 µM
[24] = second compound 3.16 µM, first compound 3.16 µM
[25] = second compound 10 µM, first compound 0.01 µM
[26] = second compound 10 µM, first compound 0.0316 µM
[27] = second compound 10 µM, first compound 0.1 µM
[28] = second compound 10 µM, first compound 0.316 µM
[29] = second compound 10 µM, first compound 1 µM
[30] = second compound 10 µM, first compound 3.16 µM
[31] = second compound 0.1 µM, first compound 10 µM
[32] = second compound 0.316 µM, first compound 10 µM
[33] = second compound 1 µM, first compound 10 µM
[34] = second compound 3.16 µM, first compound 10 µM
[35] = second compound 10 µM, first compound 10 µM
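Further: spheroids exposed to agents for 7 days.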
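Wherever viability, T/C is given: 100% = DMSO vehicle control viability.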

| SMILES | IC50 (second compound 0.1 µM) [nM] | IC50 (second compound 0.316 µM) [nM] | IC50 (second compound 1 µM) [nM] | IC50 (second compound 3.16 µM) [nM] | IC50 (second compound 10 µM) [nM] | viability, T/C [2] [%] | viability, T/C [3] [%] | viability, T/C [4] [%] | viability, T/C [5] [%] | viability, T/C [8] [%] | viability, T/C [9] [%] | viability, T/C [10] [%] | viability, T/C [11] [%] | viability, T/C [14] [%] | viability, T/C [15] [%] | viability, T/C [16] [%] | viability, T/C [17] [%] | viability, T/C [20] [%] | viability, T/C [21] [%] | viability, T/C [22] [%] | other results |
| --- | --- | --- | --- | --- | --- | --- | --- | --- | --- | --- | --- | --- | --- | --- | --- | --- | --- | --- | --- | --- | --- |
| CC1COCCN1c1cc(-c2ccnn2C)c2ccnc(-c3ccn[nH]3)c2n1 (stereo not given) + CC1OCC2(CCN(c3cnc(Sc4ccnc(N)c4Cl)c(N)n3)CC2)C1N | 15.3 | < 10 | < 10 | < 10 | < 10 | 32.2 | 17.7 | 15 | 13.5 | 23.2 | 12.3 | 10.7 | 10.5 | 13 | 7.36 | 6.29 | 5.53 | 7.07 | 4.72 | 4.25 | viability, T/C [1]: 60.7%; viability, T/C [6]: 12.9%; viability, T/C [7]: 43.1%; viability, T/C [12]: 9.88%; viability, T/C [13]: 35.1%; viability, T/C [18]: 3.23%; viability, T/C [19]: 13.3%; viability, T/C [23]: 2.21%; viability, T/C [24]: 2.21%; viability, T/C [25]: 7.99%; viability, T/C [26]: 5.12%; viability, T/C [27]: 4.05%; viability, T/C [28]: 3.27%; viability, T/C [29]: 1.9%; viability, T/C [30]: 1.31% |
| CCN1CCN(Cc2ccc(Nc3ncc(F)c(-c4cc(F)c5nc(C)n(C(C)C)c5c4)n3)nc2)CC1 + CC1OCC2(CCN(c3cnc(Sc4ccnc(N)c4Cl)c(N)n3)CC2)C1N | 25.2 | 14.6 | < 3.16 | < 3.16 | < 3.16 | 45.8 | 46.4 | 42 | 49.7 | 42.1 | 36.8 | 35.5 | 42.3 | 26.2 | 23.4 | 26.1 | 35.3 | 14.9 | 14.7 | 17.9 | viability, T/C (second compound 0.1 µM, first compound 0.00316 µM): 72.6%; viability, T/C [1]: 66.4%; viability, T/C (second compound 0.316 µM, first compound 0.00316 µM): 51.3%; viability, T/C [7]: 56.5%; viability, T/C (second compound 1 µM, first compound 0.00316 µM): 38.5%; viability, T/C [13]: 37.7%; viability, T/C (second compound 3.16 µM, first compound 0.00316 µM): 18.8%; viability, T/C [19]: 15.7%; viability, T/C [23]: 29.5%; viability, T/C (second compound 10 µM, first compound 0.00316 µM): 13.7%; viability, T/C [25]: 16.3%; viability, T/C [26]: 13.9%; viability, T/C [27]: 10.5%; viability, T/C [28]: 14.5%; viability, T/C [29]: 25.7% |
| CCNC(=O)CC1N=C(c2ccc(Cl)cc2)c2cc(OC)ccc2-n2c(C)nnc21 (stereo not given) + CC1OCC2(CCN(c3cnc(Sc4ccnc(N)c4Cl)c(N)n3)CC2)C1N | 244 | 146 | < 31.6 | < 31.6 | < 31.6 | 74.6 | 63.5 | 44.9 | 36.3 | 63.3 | 57.8 | 34.4 | 28 | 45.6 | 35.5 | 27.2 | 22.2 | 16.2 | 20.8 | 14.3 | viability, T/C [6]: 28.6%; viability, T/C [31]: 27.4%; viability, T/C [12]: 25.2%; viability, T/C [32]: 22.6%; viability, T/C [18]: 11.9%; viability, T/C [33]: 7.8%; viability, T/C [23]: 13.1%; viability, T/C [24]: 6.89%; viability, T/C [34]: 4.84%; viability, T/C [26]: 16.6%; viability, T/C [27]: 16.3%; viability, T/C [28]: 14.9%; viability, T/C [29]: 8.18%; viability, T/C [30]: 6.22%; viability, T/C [35]: 3.88% |
| Cn1nccc1Nc1nccc(-c2cc3c(s2)C(C)(C)N(CCN2CCOCC2)C3=O)n1 + CC1OCC2(CCN(c3cnc(Sc4ccnc(N)c4Cl)c(N)n3)CC2)C1N | 806 | 102 | < 31.6 | < 31.6 | < 31.6 | 66.1 | 67.3 | 55.8 | 51 | 56 | 50.3 | 36.2 | 33.1 | 32.9 | 32.4 | 27.4 | 22 | 17.4 | 16 | 13.9 | viability, T/C [6]: 35.9%; viability, T/C [31]: 36.4%; viability, T/C [12]: 33.6%; viability, T/C [32]: 33.5%; viability, T/C [18]: 23.3%; viability, T/C [33]: 22.9%; viability, T/C [23]: 14.7%; viability, T/C [24]: 14.7%; viability, T/C [34]: 18.8%; viability, T/C [26]: 14.4%; viability, T/C [27]: 12.8%; viability, T/C [28]: 9.42%; viability, T/C [29]: 8.83%; viability, T/C [30]: 9.11%; viability, T/C [35]: 12.2% |
| CC(=O)OC12COC1CC(O)C1(C)C(=O)C(O)C3=C(C)C(OC(=O)C(O)C(NC(=O)OC(C)(C)C)c4ccccc4)CC(O)(C(OC(=O)c4ccccc4)C21)C3(C)C (stereo not given) + CNCc1ccccc1-c1csc(C(C)Nc2nc(C)nc3cc(OC)c(OC)cc23)c1 | < 10 | < 10 | < 10 | < 10 | < 10 | 25.5 | 24.1 | 25.7 | 26.5 | 24.3 | 21.9 | 21.8 | 23 | 25.7 | 28.4 | 28.2 | 32.7 | 26.9 | 4.54 | 0.8 | viability, T/C [1]: 29%; viability, T/C [6]: 28.6%; viability, T/C [7]: 23.3%; viability, T/C [12]: 25.7%; viability, T/C [13]: 27.5%; viability, T/C [18]: 35.3%; viability, T/C [19]: 0.95%; viability, T/C [23]: 7.93%; viability, T/C [24]: 30.4%; viability, T/C [25]: 0.72%; viability, T/C [26]: 0.14%; viability, T/C [27]: 0.36%; viability, T/C [28]: 0.45%; viability, T/C [29]: 0.41%; viability, T/C [30]: 0.21% |
